From ChEMBL document CHEMBL1132745, “Diphenylsulfone muscarinic antagonists: piperidine derivatives with high M2 selectivity and improved potency” (Bioorg Med Chem Lett, 2000)

Tests used:
[1] = target: T1, Muscarinic acetylcholine receptor M2 (Homo sapiens, UniProt P08172); assay: Binding affinity against Muscarinic acetylcholine receptor M2
T1 sequence (P08172 whole entry): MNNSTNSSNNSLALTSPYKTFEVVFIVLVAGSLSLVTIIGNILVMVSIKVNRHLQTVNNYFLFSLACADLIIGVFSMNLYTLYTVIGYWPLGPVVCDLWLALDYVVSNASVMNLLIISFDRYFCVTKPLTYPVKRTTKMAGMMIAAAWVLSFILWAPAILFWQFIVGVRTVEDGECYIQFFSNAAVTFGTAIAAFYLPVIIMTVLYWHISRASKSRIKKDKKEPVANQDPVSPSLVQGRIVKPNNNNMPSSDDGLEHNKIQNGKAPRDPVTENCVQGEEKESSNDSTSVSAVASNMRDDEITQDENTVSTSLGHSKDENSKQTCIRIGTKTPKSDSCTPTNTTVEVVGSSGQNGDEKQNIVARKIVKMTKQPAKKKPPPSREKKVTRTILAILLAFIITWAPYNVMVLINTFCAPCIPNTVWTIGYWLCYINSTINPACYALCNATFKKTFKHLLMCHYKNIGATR

[2] = target: T2, Muscarinic acetylcholine receptor M4 (Homo sapiens, UniProt P08173); assay: Binding affinity against Muscarinic acetylcholine receptor M4
T2 sequence (P08173 whole entry): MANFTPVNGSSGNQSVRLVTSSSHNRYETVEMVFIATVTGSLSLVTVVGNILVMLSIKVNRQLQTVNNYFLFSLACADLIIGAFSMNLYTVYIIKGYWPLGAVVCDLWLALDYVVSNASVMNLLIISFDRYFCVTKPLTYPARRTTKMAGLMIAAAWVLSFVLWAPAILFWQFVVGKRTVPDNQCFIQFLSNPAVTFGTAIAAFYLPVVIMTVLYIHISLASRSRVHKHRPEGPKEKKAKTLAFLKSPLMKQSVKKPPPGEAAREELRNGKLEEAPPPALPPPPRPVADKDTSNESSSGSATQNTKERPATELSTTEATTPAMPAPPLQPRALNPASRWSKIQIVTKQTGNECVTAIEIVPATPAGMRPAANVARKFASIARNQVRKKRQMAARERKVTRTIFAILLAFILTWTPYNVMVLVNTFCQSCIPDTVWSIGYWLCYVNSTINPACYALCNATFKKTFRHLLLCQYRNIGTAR

[3] = target: Muscarinic acetylcholine receptor M3 (Homo sapiens, UniProt P20309); assay: Binding affinity against Muscarinic acetylcholine receptor M3
Sequence of Muscarinic acetylcholine receptor M3 (P20309 whole entry): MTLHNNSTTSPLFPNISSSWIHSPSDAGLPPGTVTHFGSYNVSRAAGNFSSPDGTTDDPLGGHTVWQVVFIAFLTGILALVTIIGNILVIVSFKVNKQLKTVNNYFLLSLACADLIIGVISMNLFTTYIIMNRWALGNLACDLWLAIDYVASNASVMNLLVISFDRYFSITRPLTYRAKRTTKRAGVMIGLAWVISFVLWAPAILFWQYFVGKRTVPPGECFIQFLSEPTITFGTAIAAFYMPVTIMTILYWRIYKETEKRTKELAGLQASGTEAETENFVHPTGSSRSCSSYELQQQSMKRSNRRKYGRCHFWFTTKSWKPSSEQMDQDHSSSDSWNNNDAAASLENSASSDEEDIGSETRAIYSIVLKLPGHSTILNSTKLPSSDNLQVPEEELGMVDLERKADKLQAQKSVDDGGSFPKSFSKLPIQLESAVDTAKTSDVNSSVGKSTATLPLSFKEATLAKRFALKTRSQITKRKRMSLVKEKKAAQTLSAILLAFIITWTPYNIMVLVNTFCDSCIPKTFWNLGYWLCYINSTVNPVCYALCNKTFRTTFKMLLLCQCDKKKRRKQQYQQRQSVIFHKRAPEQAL

[4] = target: T3, Muscarinic acetylcholine receptor M1 (Homo sapiens, UniProt P11229); assay: Binding affinity against Muscarinic acetylcholine receptor M1
T3 sequence (P11229 whole entry): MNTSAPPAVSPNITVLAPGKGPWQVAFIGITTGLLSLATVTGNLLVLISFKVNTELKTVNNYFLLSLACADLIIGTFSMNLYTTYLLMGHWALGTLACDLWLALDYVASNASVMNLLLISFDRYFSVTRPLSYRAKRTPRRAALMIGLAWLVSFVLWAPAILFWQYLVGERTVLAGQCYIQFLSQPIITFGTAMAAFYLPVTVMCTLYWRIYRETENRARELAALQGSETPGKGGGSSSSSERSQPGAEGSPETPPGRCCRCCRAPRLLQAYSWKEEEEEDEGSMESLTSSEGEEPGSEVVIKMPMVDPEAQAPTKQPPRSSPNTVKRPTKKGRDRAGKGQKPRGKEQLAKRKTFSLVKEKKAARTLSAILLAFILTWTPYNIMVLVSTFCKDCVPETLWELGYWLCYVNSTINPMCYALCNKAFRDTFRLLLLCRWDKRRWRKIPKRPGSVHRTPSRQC

[5] = target: T4, Muscarinic acetylcholine receptor M5 (Homo sapiens, UniProt P08912); assay: The compound was tested for the binding affinity against Muscarinic acetylcholine receptor M5
T4 sequence (P08912 whole entry): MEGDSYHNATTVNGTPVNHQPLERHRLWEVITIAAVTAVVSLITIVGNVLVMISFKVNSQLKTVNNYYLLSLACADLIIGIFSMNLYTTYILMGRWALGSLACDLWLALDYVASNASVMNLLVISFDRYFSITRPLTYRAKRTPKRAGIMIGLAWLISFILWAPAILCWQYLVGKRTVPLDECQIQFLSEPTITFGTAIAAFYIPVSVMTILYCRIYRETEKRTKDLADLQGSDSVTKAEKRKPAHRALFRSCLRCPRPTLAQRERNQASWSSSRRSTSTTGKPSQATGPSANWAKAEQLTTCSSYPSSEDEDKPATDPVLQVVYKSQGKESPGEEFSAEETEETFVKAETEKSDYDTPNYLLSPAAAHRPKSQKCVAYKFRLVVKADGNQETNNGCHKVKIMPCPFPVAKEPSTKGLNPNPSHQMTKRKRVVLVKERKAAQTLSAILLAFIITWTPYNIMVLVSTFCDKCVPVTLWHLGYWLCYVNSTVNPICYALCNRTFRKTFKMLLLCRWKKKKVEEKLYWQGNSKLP

`COc1ccc([S@@+]([O-])c2ccc(C(C#N)N3CCN(C4CCCCC4)CC3)cc2)cc1` (some centres not stated) was tested, and the Ki [1] was 2.78 nM, the Ki [2] was 14.8 nM and the Ki [3] was 29.4 nM. The Ki [4] was 112 nM and the Ki [5] was 309 nM.

For `COc1ccc([S@@+]([O-])c2ccc(C(C#N)C3CCN(C4CCCCC4)CC3)cc2)cc1` (some centres not stated), the Ki [1] was 7.67 nM, the Ki [2] was 12.7 nM and the Ki [3] was 37 nM. The Ki [4] was 113 nM.

With `COc1ccc([S@+]([O-])c2ccc(C(C#N)N3CCN(C4CCCCC4)CC3)cc2)cc1` (some centres not stated) the Ki [1] was 17.3 nM, the Ki [2] was 18.4 nM and the Ki [4] was 253 nM.

In the case of `COc1ccc([S@@+]([O-])c2ccc(C(=O)C3CCN(C4CCCCC4)CC3)cc2)cc1`, the Ki [1] is reported as 3.58 nM, the Ki [2] is reported as 17.9 nM and the Ki [3] is reported as 27.8 nM. For the same molecule, the Ki [4] was 104 nM.

Molecule `C=C(c1ccc([S@@+]([O-])c2ccc(OC)cc2)cc1)C1CCN(C2CCCCC2)CC1` has a Ki [1] of 0.03 nM, a Ki [2] of 0.09 nM and a Ki [3] of 0.13 nM. The Ki [4] was 0.68 nM.

Work on `COc1ccc([S@+]([O-])c2ccc(C(C#N)C3CCN(C4CCCCC4)CC3)cc2)cc1` (some centres not stated) yielded a Ki [1] of 7.14 nM, a Ki [2] of 45.1 nM and a Ki [3] of 58.8 nM. For the same molecule, the Ki [4] was 136 nM.

For `COc1ccc([S@+]([O-])c2ccc(C(=O)C3CCN(C4CCCCC4)CC3)cc2)cc1`, the Ki [1] was 10.8 nM, the Ki [2] was 15.2 nM and the Ki [3] was 20.1 nM. The Ki [4] was 69.5 nM.

For `C=C(c1ccc([S@+]([O-])c2ccc(OC)cc2)cc1)C1CCN(C2CCCCC2)CC1`, the Ki [1] was 0.057 nM, the Ki [2] was 0.32 nM and the Ki [3] was 0.38 nM. The Ki [4] was 2.14 nM.

`COc1ccc([S+]([O-])c2ccc(C(C)N3CCN(C4CCCCC4)CC3)cc2)cc1` (configuration not stated) was tested, and the Ki [1] was 1 nM, the Ki [2] was 2.2 nM and the Ki [3] was 0.97 nM. The Ki [4] was 6 nM.

Molecule `COc1ccc(S(=O)(=O)c2ccc(C(C#N)C3CCN(C4CCCCC4)CC3)cc2)cc1` (configuration not stated) has a Ki [1] of 1.3 nM and a Ki [4] of 16.4 nM.

For `C=C(c1ccc(Sc2ccc(OC)cc2)cc1)C1CCN(C2CCCCC2)CC1`, the Ki [1] was 0.37 nM and the Ki [4] was 4.4 nM.

Work on `COc1ccc([S+]([O-])c2ccc(C(C)C3CCN(C4CCCCC4)CC3)cc2)cc1` (configuration not stated) yielded a Ki [1] of 0.14 nM, a Ki [2] of 0.07 nM and a Ki [3] of 0.16 nM. It also gave a Ki [4] of 0.53 nM and a Ki [5] of 1.66 nM.

With `C=C(c1ccc(S(=O)(=O)c2ccc(OC)cc2)cc1)C1CCN(C2CCCCC2)CC1` the Ki [1] was 0.17 nM, the Ki [2] was 0.33 nM and the Ki [3] was 0.48 nM. It also gave a Ki [4] of 2.8 nM.

Molecule `COc1ccc(S(=O)(=O)c2ccc(C(=O)C3CCN(C4CCCCC4)CC3)cc2)cc1` has a Ki [1] of 3.07 nM, a Ki [2] of 9.05 nM and a Ki [3] of 13.8 nM. For the same molecule, the Ki [4] was 31.1 nM.

For `COc1ccc(S(=O)(=O)c2ccc(C(C#N)N3CCN(C4CCCCC4)CC3)cc2)cc1` (configuration not stated), the Ki [1] was 7.3 nM, the Ki [2] was 18.6 nM and the Ki [3] was 6.8 nM. The Ki [4] was 71.8 nM.
